# Measurements as given in US20110152166A1, “METHOD OF MODULATION OF PROTEIN PHOSPHORYLATION-DEPENDENT CONFORMATIONAL TRANSITIONS WITH LOW MOLECULAR WEIGHT COMPOUNDS” (priority 2006, published 2011).
# Numbering of substitutions follows the chain as printed. Read-outs that look alike come from different tables or passages of the source. Ends that are not written are not given here.
# Columns and labels:
# Assay in all cases: PDK1 activity assay with T308tide
# Format in all cases: biochemical
# [1] = target: T1, GST-PDK1 [Val127Thr] (Homo sapiens, UniProt O15530, V127T); details: for AC50 / Max. activity: GST-PDK1 [Val127Thr]; for activation of PDK1 Val127Thr mutant: Val127 replaced by Thr
# T1 construct: different protein constructs, comprising the full length protein or the catalytic domain alone; made in house; host or cells: HEK293 cells (pEBG-2T-PDK1 mutant)
# T1 sequence (O15530 1-556 V127T): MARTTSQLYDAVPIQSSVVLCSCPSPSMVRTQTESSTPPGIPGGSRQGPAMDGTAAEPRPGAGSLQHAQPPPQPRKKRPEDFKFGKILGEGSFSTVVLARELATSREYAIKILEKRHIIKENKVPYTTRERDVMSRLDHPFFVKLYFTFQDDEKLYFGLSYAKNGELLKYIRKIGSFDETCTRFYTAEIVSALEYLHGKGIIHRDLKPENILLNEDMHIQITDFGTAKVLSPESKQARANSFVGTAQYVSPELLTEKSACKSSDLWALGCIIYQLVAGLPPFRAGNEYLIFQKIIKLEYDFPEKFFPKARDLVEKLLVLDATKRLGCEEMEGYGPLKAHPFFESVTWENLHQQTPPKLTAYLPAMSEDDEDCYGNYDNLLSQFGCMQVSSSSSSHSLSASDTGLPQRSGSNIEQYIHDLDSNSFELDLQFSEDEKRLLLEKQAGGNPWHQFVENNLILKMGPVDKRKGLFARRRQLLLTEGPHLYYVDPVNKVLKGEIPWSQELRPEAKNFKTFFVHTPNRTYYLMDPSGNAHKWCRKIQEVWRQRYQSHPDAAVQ
# [2] = target: T2, GST-PDK1 [Gln150Lys] (Homo sapiens, UniProt O15530, Q150K)
# T2 construct: different protein constructs, comprising the full length protein or the catalytic domain alone; made in house; host or cells: HEK293 cells (pEBG-2T-PDK1 mutant)
# T2 sequence (O15530 1-556 Q150K): T1 sequence (O15530 1-556 V127T) with T127V, Q150K
# [3] = target: T3, PDK1 50-360 (Homo sapiens, UniProt O15530); details: for AC50 / Max. activity: PDK1 50-360; for activation of PDK1 CD wt (in words): catalytic domain 50-360 wild type
# T3 construct: the catalytic domain of PDK1 (50-359) produced in SF9 insect cells; His-tag (pFastbac-HT, TEV site) (N, cleaved yes); made in house; host or cells: Sf9 insect cells (baculovirus, pFastbac-HT)
# T3 sequence (O15530 50-359): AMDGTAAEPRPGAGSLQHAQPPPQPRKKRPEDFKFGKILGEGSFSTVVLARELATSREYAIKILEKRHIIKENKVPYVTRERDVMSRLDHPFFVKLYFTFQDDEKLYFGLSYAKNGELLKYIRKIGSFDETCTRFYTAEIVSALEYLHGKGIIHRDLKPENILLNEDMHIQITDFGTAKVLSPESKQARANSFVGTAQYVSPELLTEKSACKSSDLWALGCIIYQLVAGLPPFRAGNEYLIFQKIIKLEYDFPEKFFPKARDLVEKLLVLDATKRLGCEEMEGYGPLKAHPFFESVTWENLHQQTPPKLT
# [4] = target: T4, GST-PDK1 [Lys115Met] (Homo sapiens, UniProt O15530, K115M)
# T4 construct: different protein constructs, comprising the full length protein or the catalytic domain alone; made in house; host or cells: HEK293 cells (pEBG-2T-PDK1 mutant)
# T4 sequence (O15530 whole entry K115M, the tested form may be a part): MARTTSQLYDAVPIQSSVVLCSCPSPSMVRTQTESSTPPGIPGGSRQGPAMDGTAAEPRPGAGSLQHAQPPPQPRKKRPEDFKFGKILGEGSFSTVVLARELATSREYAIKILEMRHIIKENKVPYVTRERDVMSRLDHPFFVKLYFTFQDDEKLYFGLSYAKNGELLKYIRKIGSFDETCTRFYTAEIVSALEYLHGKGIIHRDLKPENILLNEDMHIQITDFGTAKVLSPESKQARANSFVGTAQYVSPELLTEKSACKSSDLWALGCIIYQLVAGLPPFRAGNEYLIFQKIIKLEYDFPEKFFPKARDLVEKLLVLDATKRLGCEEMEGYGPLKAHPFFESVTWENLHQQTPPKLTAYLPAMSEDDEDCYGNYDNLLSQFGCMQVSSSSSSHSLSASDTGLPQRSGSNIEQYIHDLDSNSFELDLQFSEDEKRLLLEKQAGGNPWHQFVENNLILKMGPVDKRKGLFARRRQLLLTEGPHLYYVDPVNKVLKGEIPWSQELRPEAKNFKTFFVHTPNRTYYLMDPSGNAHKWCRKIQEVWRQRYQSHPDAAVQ
AC50 [1],Max. activity [1],activation of PDK1 Val127Thr mutant [1],AC50 [2],Max. activity [2],AC50 [3],Max. activity [3],activation of PDK1 CD wt (in words) [3],AC50 [4],AC50 ([4]; read-out: AC50),Compound
0.14 ± 0.07 µM,2.36 ± 0.15 U/mg,260%,0.29 ± 0.05 µM,2.7 ± 0.2 U/mg,0.17 ± 0.09 µM,2.62 ± 0.18 U/mg,activated,No Effect,,"REPRILSEEEQEMFRDFDYIADWC [PIFtide, reference compound]"
104 ± 58 µM,1.69 ± 0.2 U/mg,240%,15 ± 4 µM,1.37 ± 0.06 U/mg,38 ± 8 µM,3.46 ± 0.19 U/mg,activated,,> 200 µM,O=C(O)CSC(CC(=O)c1ccc(Cl)cc1)c1ccccc1 (stereo not drawn) [Compound 1]
